Structures can show the parent of a compound that is named as a salt.
Legend:
[1] = system: MCP-1 production; experiment: LPS induced MCP-1 production from human whole blood; format: cell-based; conditions: LPS 200 ng/mL, 18-24 hours
Procedure: Activation of monocytic cells by agonists of toll-like receptors such as bacterial lipopolysaccharide (LPS) results in production of key inflammatory mediators including MCP-1. Such pathways are widely considered to be central to the pathophysiology of a range of auto-immune and inflammatory disorders. Blood is collected in a tube containing Sodium heparin (Leo Pharmaceuticals) (10 units of heparin/mL of blood). 96-well compound plates containing 1 μL test sample in 100% DMSO were prepared (two replicates on account of donor variability). 130 μL of whole blood was dispensed into each well of the 96-well compound plates and incubated for 30 min at 37° C., 5% CO2. 10 μL of lipopolysaccharide (from Salmonella typhosa; L6386) made up in PBS (200 ng/mL final assay concentration) was added to each well of the compound plates. The plates were then placed in the humidified primary cell incubator for 18-24 hours at 37° C., 5% CO2. 140 μL of PBS was added to all wells of the compound plates containing blood. The plates were then sealed and centrifuged for 10 mins at 2500 rpm. […] 150 μL of 2×MSD Read Buffer T (stock 4×MSD Read Buffer T was diluted 50:50 with de-ionised water) was then added to each well and the plates read on the MSD Sector Imager 6000. Concentration response curves for each compound were generated from the data and an pIC50 value was calculated.

[2] = target: T1, recombinant human CES1 (Homo sapiens, UniProt P23141); experiment: Hydrolysis by hCES-1 (HPLC assay); format: in vitro ADME; conditions: 50 μM test compound, 50 nM CES1, 20° C., pH 7.5, n=2
T1 construct: Recombinant human CES1 (Gly18-Glu563, bearing a polyhistidine tag at the C-terminus); purchased Novoprotein, Summit, N.J., USA C450; host or cells: human cells
T1 sequence (P23141 18-563): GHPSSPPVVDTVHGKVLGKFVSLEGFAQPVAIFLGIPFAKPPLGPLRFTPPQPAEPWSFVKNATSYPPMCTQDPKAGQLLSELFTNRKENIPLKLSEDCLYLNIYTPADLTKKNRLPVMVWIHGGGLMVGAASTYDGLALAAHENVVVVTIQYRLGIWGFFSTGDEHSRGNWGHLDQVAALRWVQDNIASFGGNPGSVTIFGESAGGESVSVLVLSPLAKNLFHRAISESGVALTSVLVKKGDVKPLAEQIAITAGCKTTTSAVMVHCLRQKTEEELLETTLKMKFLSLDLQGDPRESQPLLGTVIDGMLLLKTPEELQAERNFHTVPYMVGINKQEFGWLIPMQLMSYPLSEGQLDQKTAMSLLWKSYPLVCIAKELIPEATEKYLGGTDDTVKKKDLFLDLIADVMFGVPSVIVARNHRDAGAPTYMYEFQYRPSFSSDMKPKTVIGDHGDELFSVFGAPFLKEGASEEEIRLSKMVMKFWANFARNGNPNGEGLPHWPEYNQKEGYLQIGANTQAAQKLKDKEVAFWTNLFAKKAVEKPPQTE
Procedure: Hydrolysis of ESM-containing BET inhibitors by carboxylesterase 1 (CES1) is one aspect of delivering a targeted molecule. Rates of hydrolysis of certain compounds of the invention by recombinant human CES1 were determined using an HPLC assay. Recombinant human CES1 (Gly18-Glu563, bearing a polyhistidine tag at the C-terminus) expressed in human cells and purified to homogeneity was obtained from Novoprotein, Summit, N.J., USA (catalogue number C450). Reactions were run in 384 well plates at 20° C. in a buffer of 50 mM sodium phosphate pH 7.5/100 mM NaCl. Assays used a fixed concentration of test compound (50 μM) and CES1 (50 nM) and a time course of the reaction was obtained by stopping samples at increasing times by addition of formic acid to lower the pH. Stopped samples were subsequently analysed by HPLC to resolve product acid from unhydrolysed ester, using a 50×2 mm C18 […] reversed-phase column (Phenomenex Gemini) at a flow rate of 1 ml/min using a gradient of acetonitrile in water, containing 0.1% formic acid. Chromatogaphy was monitored using absorbance at 300 nm wavelength. The % of product formed was determined using integrated peak areas and used to determine the initial rate of the reaction. […]

[3] = system: Bromodomains BRD2, BRD3, BRD4 and BRDT; experiment: Fluoroligand binding to mutated vs non-mutated bromodomain (TR-FRET); design: species or system Human; conditions: single residue mutations in the acetyl lysine binding pocket
Procedure: The binding of compounds of the invention to Bromodomains BRD2, BRD3, BRD4 and BRDT was assessed using mutated proteins to detect differential binding to either Binding Domain 1 (BD1) or Binding Domain 2 (BD2) on the bromodomain. These single residue mutations in the acetyl lysine binding pocket greatly lower the affinity of the fluoroligand (Reference Compound X) for the mutated domain (>1000 fold selective for the non-mutated domain). Therefore in the final assay conditions, binding of the fluoroligand to the mutated domain cannot be detected and subsequently the assay is suitable to determine the binding of compounds to the single non-mutated bromodomain.
Recombinant Human Bromodomains [(BRD2 (1-473) (Y113A) and (Y386A), BRD3 (1-435) (Y73A) and (Y348A) BRD4 (1-477) (Y97A) and (Y390A) and BRDT (1-397) (Y66A) and (Y309A)] were expressed in E. coli cells (in pET15b vector for BRD2/3/4 and in pET28a vector for BRDT) with a 6-His tag at the N-terminal. The His-tagged Bromodomain pellet was resuspended in 50 mM HEPES (pH7.5), 300 mM NaCl, 10 mM imidazole & 1 μl/ml protease inhibitor cocktail and extracted from the E. coli cells using sonication and purified using a nickel sepharose high performance column, the proteins were washed and then eluted with a linear gradient of 0-500 mM imidazole with buffer 50 mM HEPES (pH7.5), 150 mM NaCl, 500 mM imidazole, over 20 column volumes. […]

Cc1cc(-c2nc3cc(CN[C@H](C(=O)OC(C)C)[C@@H](C)O)ccc3n2CC2CCOCC2)cn(C)c1=O (as salt: edisylate) (hydrate or solvate) [Example 1, (2S,3R)-Isopropyl 2-(((2-(1,5-dimethyl-6-oxo-1,6-dihydropyridin-3-yl)-1-((tetrahydro-2H-pyran-4-yl)methyl)-1H-benzo[d]imidazol-5-yl)methyl)amino)-3-hydroxybutanoate]
melting point: ~ 223 °C

Cc1cc(-c2nc3cc(CN[C@H](C(=O)OC(C)C)[C@@H](C)O)ccc3n2CC2CCOCC2)cn(C)c1=O [Example 1, (2S,3R)-Isopropyl 2-(((2-(1,5-dimethyl-6-oxo-1,6-dihydropyridin-3-yl)-1-((tetrahydro-2H-pyran-4-yl)methyl)-1H-benzo[d]imidazol-5-yl)methyl)amino)-3-hydroxybutanoate]
IC50 ([1]; Homo sapiens, read-out: mean pIC50, LPS induced MCP-1 production (converted)): 25.1 nM | mean rate of hydrolysis (specific activity of CES1) [2]: 0.21 μM/min/μM

COc1ccc2c(c1)C(c1ccc(Cl)cc1)=N[C@@H](CC(=O)NCCCCCNC(=O)CCCCCC1(C)/C(=C/C=C/C=C/C3=[N+](CCCCS(=O)(=O)O)c4ccc(S(=O)(=O)O)cc4C3(C)C)N(CCCCS(=O)(=O)[O-])c3ccc(S(=O)(=O)O)cc31)c1nnc(C)n1-2 (some centres unmarked) [Reference Compound X]
selectivity for the non-mutated domain over the mutated domain [3]: > 1000 fold

Cc1cc(-c2nc3cc(CN[C@H](C(=O)OC(C)C)[C@@H](C)O)ccc3n2CC2CCOCC2)cn(C)c1=O [edisylate salt of Example 1, Edisylate Salt of (2S,3R)-Isopropyl 2-(((2-(1,5-dimethyl-6-oxo-1,6-dihydropyridin-3-yl)-1-((tetrahydro-2H-pyran-4-yl)methyl)-1H-benzo[d]imidazol-5-yl)methyl)amino)-3-hydroxybutanoate]
mean pIC50, LPS induced MCP-1 production [1]: 7.5

Reference: patent publication US10676466B2, “Crystalline hydrate of the compound (2S,3R)-isopropyl 2-(((2-(1,5-dimethyl-6-oxo-1,6-dihydropyridin-3-yl)-1-((tetrahydro-2H-pyran-4-yl)methyl)-1H-benzo[D]imidazol-5-yl)methyl)amino)-3-hydroxybutanoate edisylate” (GLAXOSMITHKLINE INTELLECTUAL PROPERTY DEVELOPMENT LIMITED, priority 2016, dated 2020)
